Values after ≈ are worked out from the molar mass of the structure shown.

One may read the MIC as the lowest concentration that inhibits growth of the organism.

Holding throughout (type): functional
In one test the test system is Nakaseomyces glabratus. Kind of test: Antifungal activity against Candida glabrata BG2 assessed as reduction in fungal growth incubated for 48 hrs by CLSI based broth microdilution method. In general terms: In broth dilution the organism is exposed to a series of concentrations in liquid medium.
A further test deals with Candida albicans. Kind of test: Antifungal activity against Candida albicans ATCC SC5314 assessed as reduction in fungal growth incubated for 48 hrs by CLSI based broth microdilution method.
The test system of the next test is Aspergillus fumigatus. As to the kind of experiment: Antifungal activity against Aspergillus fumigatus AF293 assessed as reduction in fungal growth incubated for 48 hrs by CLSI based broth microdilution method.
The test system of a further test is Cryptococcus neoformans. Kind of test: Antifungal activity against Cryptococcus neoformans H99 assessed as reduction in fungal growth incubated for 72 hrs by CLSI based broth microdilution method.

Regarding `CC(=O)N1CCC(C(=O)NCCc2ccc(-c3ccc(C(F)(F)F)cc3)cc2)C1` (racemic), the MIC with Nakaseomyces glabratus, in the test with Candida albicans, with Aspergillus fumigatus and in the test on Cryptococcus neoformans was greater than 128 µg/mL in each case.
`CCC(N)C(=O)NCCc1ccc(-c2ccc(C(F)(F)F)cc2)cc1.Cl` (racemic): the minimum inhibitory concentration (MIC) in the test with Nakaseomyces glabratus turned out to be 16 µg/mL; in the test on Candida albicans, 16 µg/mL; with Aspergillus fumigatus it was 32 µg/mL; in the test on Cryptococcus neoformans it was 16 µg/mL.
On to `CC(NCCc1ccc(OCc2cccc(C(F)(F)F)c2)cc1)C(N)=O.CS(=O)(=O)O` (racemic), for which the minimum inhibitory concentration (MIC) in the test with Nakaseomyces glabratus was determined as 128 µg/mL; in the test with Candida albicans, 128 µg/mL; in the test with Aspergillus fumigatus it was 64 µg/mL; in the test on Cryptococcus neoformans, 32 µg/mL.
Regarding `CCCCC(N)C(=O)NCCc1ccc(-c2ccc(OC(F)(F)F)cc2)cc1.Cl` (racemic), the minimal inhibitory concentration (MIC) in the test on Nakaseomyces glabratus stood at 8 µg/mL; in the test with Candida albicans it was 8 µg/mL; in the test on Aspergillus fumigatus, 8 µg/mL; in the test with Cryptococcus neoformans, 4 µg/mL.
On to `CCCC(N)C(=O)NCCc1ccc(Oc2ccc(C(F)(F)F)cc2)cc1.Cl` (racemic), for which the minimum inhibitory concentration (MIC) in the test with Nakaseomyces glabratus is 32 µg/mL; in the test with Candida albicans, 32 µg/mL; with Aspergillus fumigatus, 32 µg/mL; in the test on Cryptococcus neoformans, 16 µg/mL.
As for `COc1cccc(COc2ccc(CCNC(C)C(N)=O)cc2)c1.CS(=O)(=O)O` (racemic), the MIC in the test with Nakaseomyces glabratus is greater than 128 µg/mL; in the test on Candida albicans, 128 µg/mL; in the test on Aspergillus fumigatus, greater than 128 µg/mL; with Cryptococcus neoformans it was 128 µg/mL.
For `O=C(NCCc1ccc(-c2ccc(Cl)c(Cl)c2)cc1)c1cccnc1`, the minimum inhibitory concentration (MIC) in the test with Nakaseomyces glabratus, with Candida albicans, with Aspergillus fumigatus and in the test on Cryptococcus neoformans was 128 µg/mL (≈ 345 µM) each time.
In the case of `CC(NCCc1ccc(-c2ccc(Cl)c(Cl)c2)cc1)C(N)=O.CS(=O)(=O)O` (racemic), the MIC in the test with Nakaseomyces glabratus was found to be 16 µg/mL; in the test on Candida albicans it was 16 µg/mL; with Aspergillus fumigatus, 8 µg/mL; in the test on Cryptococcus neoformans it was 8 µg/mL.
For `CC(NCCc1ccc(-c2ccc(OC(F)(F)F)cc2)cc1)C(N)=O.CS(=O)(=O)O` (racemic), the MIC in the test on Nakaseomyces glabratus was greater than 128 µg/mL; with Candida albicans, 36 µg/mL; in the test on Aspergillus fumigatus it was greater than 128 µg/mL; with Cryptococcus neoformans, 16 µg/mL.
In the case of `CC(NCCc1ccc(Oc2ccc(C(F)(F)F)cc2)cc1)C(N)=O.CS(=O)(=O)O` (racemic), the minimal inhibitory concentration (MIC) in the test with Nakaseomyces glabratus was 128 µg/mL; in the test on Candida albicans, 128 µg/mL; with Aspergillus fumigatus it was 64 µg/mL; in the test on Cryptococcus neoformans, 32 µg/mL.
With `CCCCC(N)C(=O)NCCc1ccc(-c2ccc(F)c(F)c2)cc1.Cl` (racemic), the MIC with Nakaseomyces glabratus turned out to be 32 µg/mL; in the test on Candida albicans, 16 µg/mL; in the test with Aspergillus fumigatus, 32 µg/mL; in the test on Cryptococcus neoformans, 16 µg/mL.
For the compound `CCCC(N)C(=O)NCCc1ccc(Oc2ccc(Cl)c(Cl)c2)cc1.Cl` (racemic), the MIC was 16 µg/mL in the test with Nakaseomyces glabratus, 16 µg/mL with Candida albicans, 16 µg/mL in the test on Aspergillus fumigatus and 8 µg/mL with Cryptococcus neoformans.
As for `CC(NCCc1ccc(OCc2ccccc2C(F)(F)F)cc1)C(N)=O.CS(=O)(=O)O` (racemic), the MIC in the test with Nakaseomyces glabratus was greater than 128 µg/mL; with Candida albicans, greater than 128 µg/mL; in the test with Aspergillus fumigatus it was 64 µg/mL; in the test with Cryptococcus neoformans it was 64 µg/mL.
`CC(C)(NCCc1ccc(OCc2cccc(C(F)(F)F)c2)cc1)C(N)=O.CS(=O)(=O)O`: the minimum inhibitory concentration (MIC) in the test with Nakaseomyces glabratus stood at 128 µg/mL; in the test with Candida albicans it was 128 µg/mL; with Aspergillus fumigatus it was 128 µg/mL; in the test on Cryptococcus neoformans, 64 µg/mL.
Turning to `CC(NCCc1ccc(-c2ccc(C(F)(F)F)cc2)cc1)C(N)=O.CS(=O)(=O)O` (racemic), the minimal inhibitory concentration (MIC) is 64 µg/mL in the test on Nakaseomyces glabratus, 128 µg/mL in the test on Candida albicans, 32 µg/mL in the test with Aspergillus fumigatus and 32 µg/mL in the test on Cryptococcus neoformans.
Take `CCCC(NC)C(=O)NCCc1ccc(OCc2ccc(C(F)(F)F)cc2)cc1.Cl` (racemic): the MIC turned out to be 64 µg/mL in the test on Nakaseomyces glabratus, 64 µg/mL with Candida albicans, 64 µg/mL in the test with Aspergillus fumigatus and 16 µg/mL with Cryptococcus neoformans.
For `CC(NCCc1ccc(OCc2ccc(Cl)cc2)cc1)C(N)=O.CS(=O)(=O)O` (racemic), the minimal inhibitory concentration (MIC) with Nakaseomyces glabratus is greater than 128 µg/mL; in the test on Candida albicans it was greater than 128 µg/mL; in the test on Aspergillus fumigatus, greater than 128 µg/mL; in the test with Cryptococcus neoformans, 64 µg/mL.

The record behind these values is ChEMBL document CHEMBL5030558, “Optimization and Evaluation of Novel Antifungal Agents for the Treatment of Fungal Infection” (J Med Chem, 2021).
